Experimental data reported in patent publication US20210002725A1, “METHODS FOR THE DIAGNOSIS OF METABOLIC DISORDERS USING EPIMETABOLIC SHIFTERS, MULTIDIMENSIONAL INTRACELLULAR MOLECULES, OR ENVIRONMENTAL INFLUENCES” (Berg LLC, priority 2009, published 2021).

How the values were obtained:
IDH1 = test: Western blot of Isocitrate Dehydrogenase-1 levels in cells treated with Coenzyme Q10; type: cell-based, human
Protocol: The whole cell pellets were resuspended one at a time in 1 mL of C7 buffer and transferred to labeled 15 mL tubes. The samples were then sonicated in the cold room on ice using 6 sonic pulses with the setting at #14. The samples were spun for a short time to 2500 g after sonication and the samples transferred to 2 ml tubes. The pH was verified of each sample (pH should be 9.0) using the foam remaining in the […] sample tubes.
Alkylation and reduction of samples was performed for each sample by adding 10 ul of 1M acrylamide, 25 ul of tributylphoshene and incubation for 90 mins with intermittent mixing. After incubation, 10 ul of 1M DTT was added and the tubes were spun at 20,000 g at 20 deg C. for 10 minutes and transferred the supernatant to labeled Amicon Ultra centrifugal filter units with a 10 k cut off (Millipore catalog #UFC 801024). The samples were spun for 15 minutes at 2500 g in 2 intervals. The conductivity was measured for Chaps alone as well as the samples using a conductivity meter. If the conductivity of samples is high, then 1 ml of chaps was added for buffer exchange and spun again at 2500 g until the volume was down to 250 ul. When the conductivity was 200 or less the samples were spun in 5 min intervals at 2500 g until the volume of the supernatant was between 150-100 ul. The sample supernatants were transferred to eppendorf tubes and Bradford assay was performed using BSA as standard.
The samples were processed as per standard protocols as described above and the amount of protein in each of the samples was determined by Bradford assay. Sample volumes equivalent to 10 ug of protein were prepared as shown below with Lamelli Loading dye (LDS) and MilliQ water were run on a 4-12% Bis-Tris Novex NuPAGE gel (Invitrogen, cat #NP0323Box)
The gels were run for 50 minutes using 1×MOPS buffer using a NOVEX Xcell Surelock system at 200 V. The gels were then transferred for 1 hour using a NOVEX Xcell Surelock wet transfer protocol at 30 V. The blots were stained with Simply Blue Safestain from Invitrogen (LC6065).
After transfer each of the blots was placed in between 2 Whatman Filter papers and dried for 15-20 minutes. After drying the blots were labeled with the date, the type of samples and either blot 1 or blot 2 using a HB pencil. The molecular weight markers were outlined with the pencil and with single lines for the blue and a doublet for the colored markers. The blots were activated with methanol for 5 seconds, washed with water for 5 minutes, and TBST for 15 minutes. The blots were blocked for 1 hour with 5% blocking reagent in TBS-T at room temperature and then washed 3 times with TBS-T (1×-15′; 2×5′ each). Blot 1 was probed with the primary antibody for IDH1 (Cell Signaling #3997) in TBST with 5% BSA (at 1:1000 dilutions) and blot 2 with the rabbit polyclonal antibody for ATP Citrate Lyase in 5% BSA (Cell Signaling #4332) at 1:1000 dilution by incubation overnight at 4 deg C. with shaking. After the overnight incubation with primary antibodies, the blots were washed 3 times with TBS-T (1×-15′; 2×5′ each) and probed with the secondary antibody (antirabbit; 1:10,000 dilution) for 1 hon the orbital tilting shaker at room temperature. After 1 h of incubation with secondary antibodies, the blots were washed 3 times with TBS-T (1×-15′; 2×5′ each) and then incubated with ECF reagent for 5 mins and then each blot scanned with 5100 Fuji Laser scanner at 25 uM resolution, 16 bit, green laser, at 400V and at 500 V.
The samples were processed and run on a 4-12% Bis-Tris Novex NuPAGE gel as described above. The gels were run, transferred and stained essentially as described above.
After transfer the blot was dried for 15-20 minutes, activated with methanol for 5 seconds, washed with water for 5 minutes, and TBST for 15 minutes. The blot was blocked for 1 hour with 5% blocking reagent in TBS-T at room temperature and then washed 3 times with TBS-T (1×-15′; 2×5′ each). […]

Hif1 alpha = test: Western blot of Hif1 alpha levels in cells treated with Coenzyme Q10; type: cell-based, human; settings: whole cell lysates of normal cells
Protocol: The Actin blots were stripped by incubating for 30 minutes with methanol, followed by two 10 minute washes with TBS-T, then 30 minutes of incubation with Stripping buffer at 50 deg C., and followed by two washes with 100 ml or more of TBS-T for 30′ each. The blots were scanned in laser scanner to check for complete stripping. The blots were activated with methanol for 5 seconds, washed with water for 5 minutes, and TBST for 15 minutes. The blots were blocked for 1 hour with 5% blocking reagent in TBS-T at room temperature and then washed 3 times with TBS-T (1×-15′; 2×5′ each) and probed with the primary antibody for Hif 1 alpha, Caspase 3 or PDHB in 5% BSA (at 1:200 by incubation overnight at 4 deg C. with gentle shaking. The primary antibody for Hif 1 alpha (Abcam ab2185; antirabbit) was at 1:500 dilution in 5% BSA. The primary antibody for Caspase 3 (Santacruz sc7272; antirabbit) was at 1:200 dilution in 5% BSA. The primary antibody for Pyruvate Dehydrogenase beta (PDHB) (Novus Biologicals H00005162-M03; antimouse) was at 1:500 dilution in 5% BSA. After incubation with primary antibodies, the membranes were washed 3 times with TBS-T (1×-15′; 2×5′ each) and probed with the secondary antibody (PDHB antimouse; Hif 1a and Caspase 3 antirabbit; 1:10,000 dilution) for 1 h at room temperature. […]

## COC1=C(OC)C(=O)C(C/C=C(\C)CC/C=C(\C)CC/C=C(\C)CC/C=C(\C)CC/C=C(\C)CC/C=C(\C)CC/C=C(\C)CC/C=C(\C)CC/C=C(\C)CCC=C(C)C)=C(C)C1=O [Q10, Coenzyme Q10]
IDH1; HASMC human aortic smooth muscle cells
  expression of IDH1: did not demonstrate significant changes
IDH1; HDFa primary human derived fibroblasts
  expression of IDH1: did not demonstrate significant changes
IDH1; HDFa, 24 h, 100 μM
  IDH1 Average Normalized Intensity: 600
IDH1; HepG2 cells
  expression of IDH1: increased expression
IDH1; MCF-7 cells
  expression of IDH1: increased expression
IDH1; PACA2, 5 g, 48 h, 100 μM
  IDH1 Normalized Intensity: 860
IDH1; PaCa-2 cells
  expression of IDH1: increased expression
IDH1; SCC25 cell lines
  expression of IDH1: moderate increase
IDH1; SKMEL28 cells
  expression of IDH1: increased expression
IDH1; nFIB fibroblasts
  expression of IDH1: did not demonstrate significant changes
Hif1 alpha
  Hif1a lower band: showed a decrease
